ChEMBL document CHEMBL1201862, “PubChem BioAssay data set” (2004)
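In this assay, cells in 96-well plates receive the compound at five concentrations for 48 hours. Endpoints are linearly interpolated between the surrounding concentrations. The concentration for 50% growth inhibition is given as GI50.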 Calls of active or inactive are those of the source. Rule as the data show it: active = GI50 up to about 1.1 µM and inactive = higher.

What was measured:
Test in all cases: growth of human tumour cells (NCI), 48 h
OVCAR-8 = test system: OVCAR-8
NCI-H226 = test system: NCI-H226
HCC 2998 = test system: HCC 2998
RPMI-8226 = test system: RPMI-8226
SF-539 = test system: SF-539
OVCAR-3 = test system: OVCAR-3
HOP-62 = test system: HOP-62
SNB-75 = test system: SNB-75
TK-10 = test system: TK-10
NCI-H522 = test system: NCI-H522
NCI-H23 = test system: NCI-H23
KM12 = test system: KM12
ACHN = test system: ACHN
SR = test system: SR
CAKI-1 = test system: CAKI-1
A498 = test system: A498

Row | Structure (SMILES) | GI50 (OVCAR-8) | GI50 (NCI-H226) | GI50 (HCC 2998) | GI50 (RPMI-8226) | GI50 (SF-539) | GI50 (OVCAR-3) | GI50 (HOP-62) | GI50 (SNB-75) | GI50 (TK-10) | GI50 (NCI-H522) | GI50 (NCI-H23) | GI50 (KM12) | GI50 (ACHN) | GI50 (SR) | GI50 (CAKI-1) | GI50 (A498)
1 | CCOC(=O)c1nc(-c2ccccc2)oc1OCC | > 100 µM (inactive) | > 100 µM (inactive) | > 100 µM (inactive) | 92.7 µM (inactive) | > 100 µM (inactive) | > 100 µM (inactive) | > 100 µM (inactive) | > 100 µM (inactive) | > 100 µM (inactive) | > 100 µM (inactive) | > 100 µM (inactive) | > 100 µM (inactive) |  |  |  | 
2 | CCOC(=O)NC(=O)c1cn(CC(=O)NCC(=O)NCC(=O)NCCCN2CCN(CCCNC(=O)CNC(=O)CNC(=O)Cn3cc(C(=O)NC(=O)OCC)c(=O)[nH]c3=O)CC2)c(=O)[nH]c1=O | > 100 µM (inactive) |  | > 100 µM (inactive) |  | > 100 µM (inactive) | > 100 µM (inactive) | > 100 µM (inactive) | > 100 µM (inactive) | > 100 µM (inactive) | > 100 µM (inactive) | > 100 µM (inactive) | > 100 µM (inactive) | > 100 µM (inactive) | > 100 µM (inactive) | > 100 µM (inactive) | > 100 µM (inactive)
3 | O=C1CCC2(O)c3ccccc3C2Cc2ccccc21 (configuration not stated) | > 100 µM (inactive) | > 100 µM (inactive) | > 100 µM (inactive) | > 100 µM (inactive) | > 100 µM (inactive) | > 100 µM (inactive) | > 100 µM (inactive) | 63.8 µM (inactive) | > 100 µM (inactive) |  | > 100 µM (inactive) | > 100 µM (inactive) | > 100 µM (inactive) | > 100 µM (inactive) |  | 
4 | Cc1cc(O)nc(NNC(C#N)c2c(O)ccc3ccccc23)n1 (configuration not stated) | 3.1 µM (inactive) | 4.14 µM (inactive) |  | 3.72 µM (inactive) | 3.85 µM (inactive) | 1.78 µM (inactive) | 6.5 µM (inactive) | 15 µM (inactive) | 9.06 µM (inactive) | 8.89 µM (inactive) | 3.56 µM (inactive) | 4.29 µM (inactive) | 1.8 µM (inactive) | 2.7 µM (inactive) | 3.18 µM (inactive) | 
5 | N/N=C(/C(=O)Nc1cccc(Cl)c1)C(C(=O)c1ccc(O)cc1O)C1OC(=O)c2ccccc21 (configuration not stated) | > 100 µM (inactive) | 95.1 µM (inactive) | > 100 µM (inactive) | 90.6 µM (inactive) | > 100 µM (inactive) | > 100 µM (inactive) | > 100 µM (inactive) |  | > 100 µM (inactive) | 71 µM (inactive) | 65.5 µM (inactive) | > 100 µM (inactive) | > 100 µM (inactive) | 40.4 µM (inactive) |  | 25.5 µM (inactive)
6 | O=C(/C=C\c1cccc2ccccc12)c1ccc(Br)cc1 | 17.5 µM (inactive) | 50.7 µM (inactive) | 17.5 µM (inactive) | 14.8 µM (inactive) | 22.3 µM (inactive) | 18.4 µM (inactive) | > 100 µM (inactive) | 21.7 µM (inactive) | 51.3 µM (inactive) | 21 µM (inactive) | 34 µM (inactive) | 15.1 µM (inactive) | 17.4 µM (inactive) |  | 33 µM (inactive) | > 100 µM (inactive)
7 | O=C(Nc1ccc(Sc2ccc(/N=N/c3c(O)c(S(=O)(=O)O)cc4cc(S(=O)(=O)O)ccc34)cc2)cc1)c1ccc(/N=N/c2c(O)ccc3c(S(=O)(=O)O)cc(S(=O)(=O)O)cc23)cc1 | 20.8 µM (inactive) | > 100 µM (inactive) | > 100 µM (inactive) | 10.4 µM (inactive) | 46.9 µM (inactive) | 19.8 µM (inactive) | 87.3 µM (inactive) | > 100 µM (inactive) | 60.8 µM (inactive) | 13.4 µM (inactive) | 19 µM (inactive) | 39.9 µM (inactive) | 29.4 µM (inactive) | 21.6 µM (inactive) | 43.8 µM (inactive) | 26 µM (inactive)
8 | CCOC(=O)[C@H]1Nc2ccc([N+](=O)[O-])cc2C2c3ccccc3CC21 (some centres not stated) | 21.4 µM (inactive) | 19.1 µM (inactive) | 21.3 µM (inactive) | 16.9 µM (inactive) | 17.3 µM (inactive) | 9.84 µM (inactive) | 18.9 µM (inactive) | 26 µM (inactive) | 27.4 µM (inactive) | 6.7 µM (inactive) | 15.3 µM (inactive) | 29.9 µM (inactive) | 23.6 µM (inactive) | 9.93 µM (inactive) | 27.8 µM (inactive) | 
9 | CCCCCCCCCCCCC(CC)CCCCC(=O)O (configuration not stated) | > 100 µM (inactive) | > 100 µM (inactive) | > 100 µM (inactive) | > 56.4 µM (inactive) | > 44.6 µM (inactive) | > 100 µM (inactive) | > 100 µM (inactive) | > 100 µM (inactive) | > 100 µM (inactive) | > 100 µM (inactive) | > 78.7 µM (inactive) | > 100 µM (inactive) | > 100 µM (inactive) | > 53.2 µM (inactive) | > 100 µM (inactive) | > 100 µM (inactive)
10 | COc1cc2c(cc1OC)C1(c3ccccc3)ON=C(c3ccccc3)N1CS2 (configuration not stated) |  | > 100 µM (inactive) | > 100 µM (inactive) | 67.6 µM (inactive) | > 100 µM (inactive) | > 100 µM (inactive) | > 100 µM (inactive) | > 100 µM (inactive) | > 100 µM (inactive) | > 100 µM (inactive) | > 100 µM (inactive) | > 100 µM (inactive) | > 100 µM (inactive) | 23.6 µM (inactive) | > 100 µM (inactive) | > 100 µM (inactive)
11 | CCCCOP1(=O)CC(C)=C(Cl)C(C)(OC)C1 (configuration not stated) | 62.2 µM (inactive) | > 100 µM (inactive) | > 100 µM (inactive) |  | > 100 µM (inactive) | > 100 µM (inactive) | > 100 µM (inactive) | > 100 µM (inactive) | > 100 µM (inactive) | 37.9 µM (inactive) | > 100 µM (inactive) | > 100 µM (inactive) | > 100 µM (inactive) | 31.8 µM (inactive) |  | 
12 | O=C1CCN2CCC(=O)c3c2c(cc2ccccc32)N1 | > 100 µM (inactive) | > 100 µM (inactive) | > 100 µM (inactive) | > 100 µM (inactive) | > 100 µM (inactive) | > 100 µM (inactive) | > 100 µM (inactive) | > 100 µM (inactive) | > 100 µM (inactive) | > 100 µM (inactive) |  | > 100 µM (inactive) | > 100 µM (inactive) |  | > 100 µM (inactive) | > 100 µM (inactive)
13 | COC(=O)C1CCC(C)CC1=O (configuration not stated) | > 100 µM (inactive) |  | > 100 µM (inactive) | > 100 µM (inactive) | > 100 µM (inactive) | > 100 µM (inactive) | 99.8 µM (inactive) | > 100 µM (inactive) | > 100 µM (inactive) | > 100 µM (inactive) | > 100 µM (inactive) | > 100 µM (inactive) | > 100 µM (inactive) |  | > 100 µM (inactive) | > 100 µM (inactive)
14 | COc1cccc(NC(=O)CSc2nnc(Cc3ccccc3)o2)c1 | > 100 µM (inactive) | > 100 µM (inactive) | > 100 µM (inactive) | > 100 µM (inactive) | > 100 µM (inactive) | > 100 µM (inactive) | > 100 µM (inactive) | 51.8 µM (inactive) | > 100 µM (inactive) | > 100 µM (inactive) | > 100 µM (inactive) | > 100 µM (inactive) | 23.3 µM (inactive) |  | > 100 µM (inactive) | > 100 µM (inactive)
15 | Cc1cc2occ(C)c(=O)c2c2c1OC(C)(C)S2 | > 100 µM (inactive) | > 100 µM (inactive) | > 100 µM (inactive) | 82.4 µM (inactive) | > 100 µM (inactive) | > 100 µM (inactive) | > 100 µM (inactive) | 88.5 µM (inactive) | > 100 µM (inactive) | 47.6 µM (inactive) | > 100 µM (inactive) | > 100 µM (inactive) | > 100 µM (inactive) | 65.9 µM (inactive) |  | 
16 | COc1cc2c3c(c1OC)-c1ccccc1C(C(OC(C)=O)c1ccccc1)C3N(C)CC2 (configuration not stated) | 34.8 µM (inactive) | 47.2 µM (inactive) | 6.81 µM (inactive) | 5.55 µM (inactive) | > 100 µM (inactive) | 43.4 µM (inactive) |  | 31.9 µM (inactive) | > 100 µM (inactive) | 49.2 µM (inactive) | 38.7 µM (inactive) | 25.7 µM (inactive) | 14.8 µM (inactive) |  | 63 µM (inactive) | 31.7 µM (inactive)
17 | COc1cc2c(c(OC)c1OC)-c1ccc(SC)c(=O)cc1[C@@H](NCc1cccc(C#N)c1)CC2 | 0.0222 µM (active) | 0.0226 µM (active) | 0.0198 µM (active) | 0.0345 µM (active) | 0.014 µM (active) | 0.0168 µM (active) | 0.0334 µM (active) | 0.00516 µM (active) | 0.0841 µM (active) | 0.0142 µM (active) | 0.0179 µM (active) | 0.00528 µM (active) | 0.047 µM (active) | 0.00414 µM (active) | 0.0075 µM (active) | 0.0161 µM (active)
18 | O=C(NC12CC3CC(CC(C3)C1)C2)C(=O)c1c[nH]c2ccccc12 |  | > 10 µM (inactive) | 14.8 µM (inactive) | 12.2 µM (inactive) | 13.6 µM (inactive) | 17 µM (inactive) | 19.1 µM (inactive) | > 10 µM (inactive) | 27 µM (inactive) | 16.3 µM (inactive) | 14.7 µM (inactive) | 13.9 µM (inactive) | 15.5 µM (inactive) | 17.8 µM (inactive) |  | 
19 | COc1ccc(CNc2cc(OC)c(OC)c(OC)c2)cc1 | 8.99 µM (inactive) | 7.5 µM (inactive) | 6.32 µM (inactive) | 4.18 µM (inactive) | 6.21 µM (inactive) | 3.14 µM (inactive) | 5.57 µM (inactive) | 5.57 µM (inactive) |  | 3.12 µM (inactive) | 6.08 µM (inactive) | 2.25 µM (inactive) | 12.1 µM (inactive) | 3.25 µM (inactive) | 4.36 µM (inactive) | 9.08 µM (inactive)
